{
  "source": "patent US20210113441A1",
  "about": "“BIOSOLVENT MIXTURE REMOVAL OF INFECTION-CAUSED NAIL DISCOLORATION” (Vertec BioSolvents, Inc., priority 2019, published 2021)",
  "test": "Solubility studies in 50/50 alcohol/ethyl lactate blends",
  "settings": "for Final concentration dissolved (clear, free of particulates): ambient temperature about 20-25 C",
  "data": [
    {"smiles": "Clc1ccccc1C(c1ccccc1)(c1ccccc1)n1ccnc1", "note": "[clotrimazole, Clotrimazole]", "values": [
      {"measurement": "Solubility", "setting": "ethanol/ethyl lactate 50/50 blend (conclusion)", "result": "greater than 10 % w/w"},
      {"measurement": "Final concentration dissolved (clear, free of particulates)", "setting": "ethyl alcohol/ethyl lactate blend 50/50 w/w", "result": 10.31, "unit": "%"},
      {"measurement": "Solubility", "setting": "isopropanol/ethyl lactate 50/50 blend (conclusion)", "result": "greater than 10 % w/w"},
      {"measurement": "Final concentration dissolved (clear, free of particulates)", "setting": "isopropyl alcohol/ethyl lactate blend 50/50 w/w", "result": 10.07, "unit": "%"}
    ]}
  ]
}
